How the values were obtained:
[1] = molecular target: Muscarinic acetylcholine receptor M4 (Homo sapiens) (UniProt P08173); conditions: Compound concentration 10.0 uM
[2] = molecular target: Calcium/calmodulin-dependent protein kinase type II subunit beta (Homo sapiens) (UniProt Q13554); conditions: Compound concentration 1.0 uM
[3] = molecular target: CDK12/Cyclin K (Homo sapiens) (UniProt O75909+Q9NYV4); conditions: Compound concentration 1.0 uM
[4] = molecular target: Cyclin-dependent kinase 14/Cyclin-Y (Homo sapiens) (UniProt O94921+Q8ND76); conditions: Compound concentration 1.0 uM
Homo sapiens = species: Homo sapiens; conditions: Compound concentration 1.0 uM
[5] = molecular target: Casein kinase II subunit alpha' (Homo sapiens) (UniProt P19784); conditions: Compound concentration 1.0 uM
Casein kinase II subunit alpha' (Homo sapiens), sequence (P19784 whole entry, looked up, the tested form may be a part): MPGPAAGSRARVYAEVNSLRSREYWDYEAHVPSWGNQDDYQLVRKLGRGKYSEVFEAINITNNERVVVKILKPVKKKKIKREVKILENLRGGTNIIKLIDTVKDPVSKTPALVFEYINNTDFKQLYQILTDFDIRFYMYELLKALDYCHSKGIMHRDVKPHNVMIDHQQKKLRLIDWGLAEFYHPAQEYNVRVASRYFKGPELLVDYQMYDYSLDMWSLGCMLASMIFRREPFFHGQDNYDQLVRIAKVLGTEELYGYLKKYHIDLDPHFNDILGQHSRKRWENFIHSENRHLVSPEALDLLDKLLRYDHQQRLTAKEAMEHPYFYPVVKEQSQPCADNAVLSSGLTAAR

[6] = molecular target: Epithelial discoidin domain-containing receptor 1 (Homo sapiens) (UniProt Q08345); conditions: Compound concentration 1.0 uM
Epithelial discoidin domain-containing receptor 1 (Homo sapiens), sequence (Q08345 whole entry, the tested form may be a part): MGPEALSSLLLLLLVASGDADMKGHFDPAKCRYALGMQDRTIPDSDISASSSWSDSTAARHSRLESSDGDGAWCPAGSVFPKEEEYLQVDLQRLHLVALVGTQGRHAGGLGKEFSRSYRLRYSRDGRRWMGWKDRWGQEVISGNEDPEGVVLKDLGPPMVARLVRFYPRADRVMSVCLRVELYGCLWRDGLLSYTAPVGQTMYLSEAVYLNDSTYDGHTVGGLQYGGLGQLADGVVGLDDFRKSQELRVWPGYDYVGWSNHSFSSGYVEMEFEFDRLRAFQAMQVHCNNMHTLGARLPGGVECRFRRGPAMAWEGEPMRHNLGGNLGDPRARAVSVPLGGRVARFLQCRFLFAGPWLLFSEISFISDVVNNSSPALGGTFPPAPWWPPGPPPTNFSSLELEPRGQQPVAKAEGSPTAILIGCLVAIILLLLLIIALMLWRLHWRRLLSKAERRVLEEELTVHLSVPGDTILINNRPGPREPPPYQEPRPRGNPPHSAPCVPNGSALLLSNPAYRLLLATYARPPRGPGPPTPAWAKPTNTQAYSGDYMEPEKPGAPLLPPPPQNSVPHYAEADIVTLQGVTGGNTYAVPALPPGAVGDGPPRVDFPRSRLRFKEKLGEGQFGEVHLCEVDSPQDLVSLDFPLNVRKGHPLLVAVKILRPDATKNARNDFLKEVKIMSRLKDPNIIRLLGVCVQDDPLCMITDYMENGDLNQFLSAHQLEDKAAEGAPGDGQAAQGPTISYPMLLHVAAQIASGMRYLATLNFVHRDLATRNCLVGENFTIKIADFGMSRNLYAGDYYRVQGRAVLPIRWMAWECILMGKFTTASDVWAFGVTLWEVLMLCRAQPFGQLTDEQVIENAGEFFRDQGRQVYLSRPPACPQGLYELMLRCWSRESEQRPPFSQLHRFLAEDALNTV

[7] = molecular target: T1, Serine/threonine-protein kinase STK11 (Homo sapiens) (UniProt Q15831); conditions: Compound concentration 1.0 uM
T1 sequence (whole entry): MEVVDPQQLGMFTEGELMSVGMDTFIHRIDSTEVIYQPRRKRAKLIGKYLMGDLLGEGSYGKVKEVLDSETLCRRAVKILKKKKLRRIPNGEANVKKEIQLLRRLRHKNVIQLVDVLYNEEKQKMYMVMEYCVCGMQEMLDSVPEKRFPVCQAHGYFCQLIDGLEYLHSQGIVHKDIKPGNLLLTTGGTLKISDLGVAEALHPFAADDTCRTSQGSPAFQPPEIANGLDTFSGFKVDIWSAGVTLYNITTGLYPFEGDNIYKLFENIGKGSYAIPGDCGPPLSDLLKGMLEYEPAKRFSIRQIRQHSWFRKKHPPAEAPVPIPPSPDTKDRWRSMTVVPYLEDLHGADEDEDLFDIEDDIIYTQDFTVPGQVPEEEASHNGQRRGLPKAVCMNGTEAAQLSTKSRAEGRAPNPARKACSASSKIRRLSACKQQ

[8] = molecular target: Serine/threonine-protein kinase 24 (Homo sapiens) (UniProt Q9Y6E0); conditions: Compound concentration 1.0 uM
Serine/threonine-protein kinase 24 (Homo sapiens), sequence (Q9Y6E0 whole entry, looked up, canonical isoform): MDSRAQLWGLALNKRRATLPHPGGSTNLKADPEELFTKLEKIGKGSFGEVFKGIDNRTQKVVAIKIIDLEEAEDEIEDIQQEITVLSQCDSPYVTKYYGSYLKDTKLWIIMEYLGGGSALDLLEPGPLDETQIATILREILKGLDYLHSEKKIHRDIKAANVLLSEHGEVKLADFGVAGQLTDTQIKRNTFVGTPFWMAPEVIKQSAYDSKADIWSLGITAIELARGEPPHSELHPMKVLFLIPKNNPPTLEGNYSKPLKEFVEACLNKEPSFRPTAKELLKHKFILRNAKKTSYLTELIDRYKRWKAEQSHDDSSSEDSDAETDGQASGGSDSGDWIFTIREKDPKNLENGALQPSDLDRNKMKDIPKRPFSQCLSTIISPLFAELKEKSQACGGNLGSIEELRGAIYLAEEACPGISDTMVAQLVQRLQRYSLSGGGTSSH

[9] = molecular target: T2, Phosphorylase b kinase regulatory subunit alpha, liver isoform (Homo sapiens) (UniProt P46019); conditions: Compound concentration 1.0 uM
T2 sequence (whole entry): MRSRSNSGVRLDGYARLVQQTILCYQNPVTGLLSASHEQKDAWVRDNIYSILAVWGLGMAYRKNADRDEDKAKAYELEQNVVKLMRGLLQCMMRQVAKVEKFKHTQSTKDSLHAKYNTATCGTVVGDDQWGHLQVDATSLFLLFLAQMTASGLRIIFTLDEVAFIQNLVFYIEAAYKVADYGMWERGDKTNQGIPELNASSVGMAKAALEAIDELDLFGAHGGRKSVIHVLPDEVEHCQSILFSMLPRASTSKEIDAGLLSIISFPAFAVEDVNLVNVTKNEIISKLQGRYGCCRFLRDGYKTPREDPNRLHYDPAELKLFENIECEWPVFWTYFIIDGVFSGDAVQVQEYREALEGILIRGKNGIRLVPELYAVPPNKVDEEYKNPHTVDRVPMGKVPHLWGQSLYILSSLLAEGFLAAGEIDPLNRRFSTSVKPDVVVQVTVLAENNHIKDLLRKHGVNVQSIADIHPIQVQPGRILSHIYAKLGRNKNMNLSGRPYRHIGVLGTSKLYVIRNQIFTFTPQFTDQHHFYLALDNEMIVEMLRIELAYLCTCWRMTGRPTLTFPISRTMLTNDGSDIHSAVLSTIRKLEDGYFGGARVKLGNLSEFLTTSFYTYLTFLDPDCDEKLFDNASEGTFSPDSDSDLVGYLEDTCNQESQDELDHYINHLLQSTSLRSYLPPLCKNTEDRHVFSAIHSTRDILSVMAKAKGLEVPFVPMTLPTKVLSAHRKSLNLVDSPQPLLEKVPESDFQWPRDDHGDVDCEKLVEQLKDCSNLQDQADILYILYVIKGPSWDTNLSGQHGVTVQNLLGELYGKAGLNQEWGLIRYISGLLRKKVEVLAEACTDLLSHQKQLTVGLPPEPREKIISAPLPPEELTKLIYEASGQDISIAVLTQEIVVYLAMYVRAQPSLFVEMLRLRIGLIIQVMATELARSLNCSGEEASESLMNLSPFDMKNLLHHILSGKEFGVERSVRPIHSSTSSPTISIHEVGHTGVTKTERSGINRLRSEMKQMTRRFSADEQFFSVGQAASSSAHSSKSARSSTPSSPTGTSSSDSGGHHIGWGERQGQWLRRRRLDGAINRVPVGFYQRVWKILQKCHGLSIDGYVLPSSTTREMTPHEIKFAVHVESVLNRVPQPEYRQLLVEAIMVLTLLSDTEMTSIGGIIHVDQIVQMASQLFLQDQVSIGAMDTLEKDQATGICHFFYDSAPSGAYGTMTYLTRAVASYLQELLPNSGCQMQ

[10] = molecular target: cAMP-dependent protein kinase catalytic subunit beta (Homo sapiens) (UniProt P22694); conditions: Compound concentration 1.0 uM
[11] = molecular target: T3, Mitogen-activated protein kinase kinase kinase 7 (Homo sapiens) (UniProt O43318); conditions: Compound concentration 1.0 uM
T3 sequence (whole entry): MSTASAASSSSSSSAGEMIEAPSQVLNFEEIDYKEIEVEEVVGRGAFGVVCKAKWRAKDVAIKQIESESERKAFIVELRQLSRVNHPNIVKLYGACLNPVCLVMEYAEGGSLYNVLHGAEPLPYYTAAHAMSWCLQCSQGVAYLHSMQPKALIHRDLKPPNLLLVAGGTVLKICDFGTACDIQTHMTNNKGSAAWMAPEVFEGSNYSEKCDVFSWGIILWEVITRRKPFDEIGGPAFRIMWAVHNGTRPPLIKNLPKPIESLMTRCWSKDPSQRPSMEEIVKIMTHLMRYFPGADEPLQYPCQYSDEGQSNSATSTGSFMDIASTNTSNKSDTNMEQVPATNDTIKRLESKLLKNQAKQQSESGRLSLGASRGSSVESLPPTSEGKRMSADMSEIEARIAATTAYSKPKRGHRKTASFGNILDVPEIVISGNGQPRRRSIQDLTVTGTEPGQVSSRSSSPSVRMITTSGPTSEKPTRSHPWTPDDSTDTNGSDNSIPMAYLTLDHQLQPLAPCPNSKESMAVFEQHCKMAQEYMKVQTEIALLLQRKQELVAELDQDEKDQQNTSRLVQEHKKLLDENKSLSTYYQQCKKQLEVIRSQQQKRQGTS

Calcium/calmodulin-dependent protein kinase type II subunit beta (Homo sapiens), sequence (Q13554 whole entry): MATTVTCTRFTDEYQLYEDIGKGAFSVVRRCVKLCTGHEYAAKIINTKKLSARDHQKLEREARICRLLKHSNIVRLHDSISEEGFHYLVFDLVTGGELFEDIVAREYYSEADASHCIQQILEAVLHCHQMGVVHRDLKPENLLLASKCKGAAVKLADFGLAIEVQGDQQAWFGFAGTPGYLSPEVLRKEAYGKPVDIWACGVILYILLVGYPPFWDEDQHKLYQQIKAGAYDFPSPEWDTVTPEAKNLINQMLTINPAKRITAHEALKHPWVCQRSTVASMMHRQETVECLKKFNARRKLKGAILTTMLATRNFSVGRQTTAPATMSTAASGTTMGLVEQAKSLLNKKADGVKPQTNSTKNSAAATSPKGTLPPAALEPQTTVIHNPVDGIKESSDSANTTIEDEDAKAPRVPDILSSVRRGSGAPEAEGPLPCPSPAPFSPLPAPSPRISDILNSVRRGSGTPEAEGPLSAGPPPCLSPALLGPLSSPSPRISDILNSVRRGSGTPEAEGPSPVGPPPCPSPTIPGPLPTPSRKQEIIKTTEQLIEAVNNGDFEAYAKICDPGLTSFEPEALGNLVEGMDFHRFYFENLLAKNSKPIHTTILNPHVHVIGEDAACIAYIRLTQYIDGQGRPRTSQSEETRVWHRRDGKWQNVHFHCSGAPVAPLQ
CDK12/Cyclin K (Homo sapiens), sequence (O75909 whole entry, looked up): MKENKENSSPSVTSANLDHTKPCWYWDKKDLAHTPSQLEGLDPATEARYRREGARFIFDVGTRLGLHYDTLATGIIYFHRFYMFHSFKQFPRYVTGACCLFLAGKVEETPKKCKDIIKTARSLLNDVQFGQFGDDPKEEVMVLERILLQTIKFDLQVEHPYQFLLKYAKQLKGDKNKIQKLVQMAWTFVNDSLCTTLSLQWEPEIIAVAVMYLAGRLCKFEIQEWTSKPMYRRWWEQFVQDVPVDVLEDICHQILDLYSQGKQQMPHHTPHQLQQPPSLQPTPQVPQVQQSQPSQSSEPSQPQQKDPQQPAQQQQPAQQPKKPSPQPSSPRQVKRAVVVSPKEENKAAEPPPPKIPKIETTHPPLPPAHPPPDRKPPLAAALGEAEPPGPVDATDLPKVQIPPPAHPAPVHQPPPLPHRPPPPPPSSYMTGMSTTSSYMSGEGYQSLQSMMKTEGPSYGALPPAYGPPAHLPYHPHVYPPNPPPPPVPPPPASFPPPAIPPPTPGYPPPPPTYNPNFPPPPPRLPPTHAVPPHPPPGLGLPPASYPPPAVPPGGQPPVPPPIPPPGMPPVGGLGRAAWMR
CDK12/Cyclin K (Homo sapiens), sequence (Q9NYV4 whole entry, looked up): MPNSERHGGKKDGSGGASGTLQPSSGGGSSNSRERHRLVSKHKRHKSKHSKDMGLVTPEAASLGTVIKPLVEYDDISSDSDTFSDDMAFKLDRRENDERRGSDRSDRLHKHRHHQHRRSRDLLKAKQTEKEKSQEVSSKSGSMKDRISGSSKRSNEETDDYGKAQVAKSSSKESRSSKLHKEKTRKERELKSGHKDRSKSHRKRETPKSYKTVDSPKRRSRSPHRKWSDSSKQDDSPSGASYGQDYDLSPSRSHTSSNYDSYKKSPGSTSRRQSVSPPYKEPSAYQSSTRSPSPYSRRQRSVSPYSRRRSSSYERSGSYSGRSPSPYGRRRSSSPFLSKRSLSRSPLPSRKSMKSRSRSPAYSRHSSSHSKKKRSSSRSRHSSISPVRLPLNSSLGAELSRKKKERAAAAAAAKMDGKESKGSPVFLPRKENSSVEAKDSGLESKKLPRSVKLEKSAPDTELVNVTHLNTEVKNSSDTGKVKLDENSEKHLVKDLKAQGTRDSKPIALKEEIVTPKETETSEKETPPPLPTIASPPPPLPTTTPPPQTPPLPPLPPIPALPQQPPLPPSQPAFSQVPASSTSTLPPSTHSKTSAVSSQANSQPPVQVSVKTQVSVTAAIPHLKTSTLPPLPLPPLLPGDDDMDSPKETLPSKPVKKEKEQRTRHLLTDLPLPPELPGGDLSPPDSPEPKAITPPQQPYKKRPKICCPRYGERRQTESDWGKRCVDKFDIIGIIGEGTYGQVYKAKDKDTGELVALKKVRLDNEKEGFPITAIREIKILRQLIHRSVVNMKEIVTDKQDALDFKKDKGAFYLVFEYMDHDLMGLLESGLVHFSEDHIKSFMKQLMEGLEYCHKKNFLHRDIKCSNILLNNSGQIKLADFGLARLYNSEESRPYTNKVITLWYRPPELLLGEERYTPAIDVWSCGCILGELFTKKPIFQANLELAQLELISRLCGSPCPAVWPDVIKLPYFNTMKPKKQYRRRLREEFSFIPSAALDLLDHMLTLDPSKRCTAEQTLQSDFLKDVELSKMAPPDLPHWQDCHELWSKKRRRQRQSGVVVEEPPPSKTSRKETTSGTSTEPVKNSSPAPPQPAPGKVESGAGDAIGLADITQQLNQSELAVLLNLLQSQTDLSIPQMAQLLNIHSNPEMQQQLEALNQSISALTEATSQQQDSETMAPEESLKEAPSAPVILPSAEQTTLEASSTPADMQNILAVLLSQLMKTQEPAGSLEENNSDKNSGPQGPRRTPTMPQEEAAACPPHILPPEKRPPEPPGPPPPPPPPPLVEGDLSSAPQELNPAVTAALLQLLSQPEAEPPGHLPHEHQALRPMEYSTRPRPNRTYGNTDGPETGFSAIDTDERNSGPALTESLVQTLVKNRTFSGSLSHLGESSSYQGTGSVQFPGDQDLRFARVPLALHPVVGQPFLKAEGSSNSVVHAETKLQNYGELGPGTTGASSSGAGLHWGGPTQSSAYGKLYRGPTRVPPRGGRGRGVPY
Muscarinic acetylcholine receptor M4 (Homo sapiens), sequence (P08173 whole entry): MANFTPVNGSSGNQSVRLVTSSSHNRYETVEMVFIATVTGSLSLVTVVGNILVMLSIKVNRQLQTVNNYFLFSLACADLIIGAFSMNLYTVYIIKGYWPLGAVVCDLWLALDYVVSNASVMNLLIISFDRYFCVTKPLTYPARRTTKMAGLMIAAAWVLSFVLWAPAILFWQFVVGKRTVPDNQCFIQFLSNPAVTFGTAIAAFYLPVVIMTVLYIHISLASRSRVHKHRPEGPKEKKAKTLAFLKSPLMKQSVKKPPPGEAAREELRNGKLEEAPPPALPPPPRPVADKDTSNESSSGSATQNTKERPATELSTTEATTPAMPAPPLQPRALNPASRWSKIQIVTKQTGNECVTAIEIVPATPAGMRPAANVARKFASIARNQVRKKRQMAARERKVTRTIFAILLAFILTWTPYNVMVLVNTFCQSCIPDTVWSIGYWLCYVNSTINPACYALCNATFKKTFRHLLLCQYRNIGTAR

Cc1nc(C2CCN(C(=O)c3ccc(OC(F)(F)F)cc3N)CC2)c2ncc(N3CCN(C)CC3)cc2n1 [BAY-693]
inactive: inhibition [1] -2.04%

CN1CCN(c2cnc3c(C4CCN(C(=O)c5ccc(OC(F)(F)F)cc5N)CC4)ncnc3c2)CC1 [BAY-885]
inactive: % residual kinase activity [2] 103% | % residual kinase activity [3] 94% | % residual kinase activity [4] 117% | % residual kinase activity (Homo sapiens) 107% | % residual kinase activity [5] 94% | % residual kinase activity [6] 100% | % residual kinase activity [7] 104% | % residual kinase activity [8] 99% | % residual kinase activity [9] 112% | % residual kinase activity [10] 89% | % residual kinase activity [11] 107%

Source: ChEMBL document CHEMBL4507268 (2021)
